# Reference: patent US20120046327A1, “METHOD FOR INHIBITING THE INDUCTION AND FORMATION OF OSTEOCLASTS” (OSAKA UNIVERSITY, priority 2005, published 2012)
# Assays:
# [1] = system: RANKL (Receptor Activator of NK-κB Ligand) in human osteoblasts; test: sRANKL expression increased by AngII in human osteoblasts; assay type: cell-based; conditions: two-day cultivation
# Protocol: Purpose: Using human osteoblasts, expression of RANKL (Receptor Activator of NK-κB Ligand) which increases with angiotensin 2 (AngII) was measured. Then, inhibitory effect of olmesartan doxomil was examined.
# Methods: Human osteoblasts (Clonetics Corp., Palo Alto, Calif.) were cultured in DMEM medium under conditions of 10% FCS, 5% CO2 and 37° C. AngII (1 μM) (Sigma) was added to the culture. After two-day cultivation, sRANKL (soluble Receptor Activator of NK-κB Ligand) contained in the culture supernatant was examined by […] (Biomedica). Further, effect produced by simultaneous administration of olmesartan (1 μM) or angiotensin type II receptor antagonist PD (123319) (chemical name: (S)-1-(4-[dimethylamino]-3-methylphenyl)methyl-5-(diphenylacetyl)-4,5,6,7-tetrahydro-1H-imidazo[4,5-c]pyridine-6-carboxylate) (1 μM) (Sigma-aldrich) was also examined.
# [2] = Blood pressure and heart rate in ovariectomized spontaneously hypertensive rats (Table A); assay type: in vivo, spontaneously hypertensive rats (SHR); conditions: average value; for Blood Pressure (diastolic): ovariectomy group 94.6667; for Blood Pressure (average): ovariectomy group 107; for Blood Pressure (systolic): ovariectomy group 131.667
# Protocol: (§1) Methods: The ovary was removed from 8-week-old female spontaneously hypertensive rats (SHR) (Charles River). After one month observation, the thigh bone was removed, followed by measurement of TRAP activity in the bone (Walter K., et al., Method of Enzymatic Analysis, Academic Press, New York & London: 1974; 856-870) and simultaneous measurement of bone density (Venken K., et al., Bone 2005; 36: 663-670). Further, from immediately after the ovariectomy, olmesartan was administered subcutaneously at two different concentrations of 0.5 mg/kg/day and 1 mg/kg/day using an osmotic pressure pump (Alzet model 2004; Alza Corp).
# Although administration of olmesartan brought no changes in the length and weight of the bone, concentration dependent decrease was recognized in TRAP activity in the thigh bone (Ovariectomy+ARB0.5 group: 71.7±8.7 U/L; Ovariectomy+ARB 1 group: 66.1±3.6 U/L). Concentration dependent decrease in blood pressure was also recognized as a result of administration of olmesartan (Table A).
# [3] = system: TRAP (tartarate-resistant acid phosphatase) activity in the thigh bone; test: TRAP activity in the thigh bone of ovariectomized spontaneously hypertensive rats; assay type: in vivo, spontaneously hypertensive rats (SHR); conditions: osmotic pump, one month after ovariectomy, ovariectomy group 76.9±9.9, non-treatment 59.6±1.0
# Protocol: (§2) Purpose: Using spontaneously hypertensive rats, increase in TRAP (tartarate-resistant acid phosphatase) activity in the thigh bone and decrease in the bone density after ovariectomy were measured. Then, inhibitory effects of olmesartan medoxomil against TRAP activity increase and bone density decrease were examined. TRAP is a marker enzyme for osteoclasts, and TRAP activity increases when osteoclasts are activated. When osteoclasts are activated, bone is resorbed and thus bone density is decreased.
# as §1
# [4] = system: osteoclasts (TRAP positive multinucleated cells) in domestic rabbit bone marrow culture system; test: Osteoclast formation induced by active vitamin D3 in domestic rabbit bone marrow culture (TRAP staining); assay type: cell-based, domestic rabbit (New Zealand White Rabbit)
# Protocol: Purpose: Using a domestic rabbit bone marrow culture system, the number of osteoclasts which were differentiation-induced by active vitamin D3 was measured. Then, inhibitory effect of olmesartan medoxomil was examined.
# Methods: A three-day-old domestic rabbit (New Zealand White Rabbit) was sacrificed, followed by removal of the thigh bone and the tibia. After collection of the bone marrow, the leukocyte (granulocyte-monocyte) fraction was isolated and cultured under conditions of α-MEM, 10% FBS, 5% CO2, 37° C. 24-well culture plates were used for the culture. The cell count was adjusted to 5×10^4 cells/well. Active vitamin D3 (10^−8M) was added to the culture system. On day 3, 7 and 10 of the culture, cells were fixed with 4% paraformaldehyde and stained with tartarate-resistant acid phosphatase (TRAP staining) under acidic conditions (pH 5.0). The number of multinucleated cells stained with red (osteoclasts) was measured. Similar measurement was performed with addition of olmesartan at concentrations of 10^−8, 10^−7 and 10^−6M. With respect to TRAP positive cells (generally, containing 1 to 100 nuclei in one cell), they were divided into three groups depending on the degree of fusion: small cells (containing 1 to 2 nuclei), medium cells (containing 3 to 9 nuclei) and large cells (containing 10 or more nuclei).
# [5] = Bone density, bone length and weight in ovariectomized spontaneously hypertensive rats; assay type: in vivo, spontaneously hypertensive rats (SHR); conditions: one month after ovariectomy, ovariectomy group 0.1438±0.003445, non-treatment 0.1685±0.002684
# Protocol: as §2, §1
# Although administration of olmesartan brought no changes in the length and weight of the bone, concentration dependent decrease was recognized in TRAP activity in the thigh bone (Ovariectomy+ARB0.5 group: 71.7±8.7 U/L; Ovariectomy+ARB 1 group: 66.1±3.6 U/L). […]
# [6] = AngII 1 μM plus test substance 1 μM added simultaneously, AngII group 1.045±0.129, control 0.133±0.0271
# [7] = Ovariectomy + 1 mg/kg/day (n = 3)
compound,measurement,setting,value
"Cc1cc(Cn2cnc3c2C[C@@H](C(=O)O)N(C(=O)C(c2ccccc2)c2ccccc2)C3)ccc1N(C)C [PD (123319), (S)-1-(4-[dimethylamino]-3-methylphenyl)methyl-5-(diphenylacetyl)-4,5,6,7-tetrahydro-1H-imidazo[4,5-c]pyridine-6-carboxylate]",sRANKL in culture supernatant,[1]; [6],0.747 ± 0.0855 pM
"CCCc1nc(C(C)(C)O)c(C(=O)O)n1Cc1ccc(-c2ccccc2-c2nnn[nH]2)cc1 [olmesartan, 4-(1-hydroxy-1-methylethyl)-2-propyl-1-[4-[2-(tetrazole-5-yl)phenyl]phenyl]methylimidazole-5-carboxylic acid]",Blood Pressure (diastolic),[2]; Ovariectomy + 0.5 mg/kg/day,68.3333
same,Blood Pressure (average),[2]; Ovariectomy + 0.5 mg/kg/day,81.3333
same,Blood Pressure (systolic),[2]; Ovariectomy + 0.5 mg/kg/day,107
same,Blood Pressure (diastolic),[2]; [7],45.8
same,Blood Pressure (average),[2]; [7],56.25
same,Blood Pressure (systolic),[2]; [7],70.8
same,TRAP activity in the thigh bone,[3]; 0.5 mg/kg/day subcutaneously,71.7±8.7 U/L
same,TRAP activity in the thigh bone,[3]; 1 mg/kg/day subcutaneously,66.1±3.6 U/L
same,growth of coexisting mesenchymal cells,"[4]; any of the groups (10^−8, 10^−7, 10^−6 M)",no remarkable change
same,"TRAP positive cells, average cell count, medium cells (containing 3 to 9 nuclei)","[4]; day 10, olmesartan 10^−6 M, active vitamin D3 10^−8M, control 68.6",50.2
same,"TRAP positive cells, average cell count, large cells (containing 10 or more nuclei)","[4]; day 10, olmesartan 10^−6 M, active vitamin D3 10^−8M, control 80.6",23.0
same,"TRAP positive cells, average cell count, small cells (containing 1 to 2 nuclei)","[4]; day 10, olmesartan 10^−6 M, active vitamin D3 10^−8M, control 101.6",192.8
same,fusion of mononuclear cells,"[4]; olmesartan 10^−6 M, day 3, compared to control group",significantly reduced
same,change in TRAP positive cell count compared to the control group,"[4]; olmesartan 10^−6 M, day 10",a significant reduction
same,change in TRAP positive cell count compared to the control group,"[4]; olmesartan 10^−7 M, day 10",a reduction in TRAP positive cell count
same,change in TRAP positive cell count compared to the control group,[4]; olmesartan 10^−8 M,no remarkable change
same,osteoclasts contributing to bone resorption (medium and large cells),"[4]; olmesartan addition groups, control group 149.2, p<0.05",73.2
same,"total number of TRAP positive, multinucleated cells","[4]; olmesartan addition groups, control group 250.8, no statistically significant difference",265.0
same,bone density (dual-energy X-ray absorptiometry),[5]; 0.5 mg/kg/day subcutaneously,0.1527±0.003454 g/cm^2
same,bone density (dual-energy X-ray absorptiometry),[5]; 1 mg/kg/day subcutaneously,0.1539±0.004365 g/cm^2
same,sRANKL in culture supernatant,[1]; [6],0.0442 ± 0.0328 pM
"AngII: angiotensin 2 (AngII) (Sigma), added at 1 μM to human osteoblast culture; increases RANKL expression (DRVYIHPF; Angiotensin-2; UniProt P01019 25-32, looked up)",sRANKL in culture supernatant,"[1]; AngII 1 μM alone, non-addition control 0.133±0.0271",1.045 ± 0.129 pM
